In patent publication US8008329B2 (Dong Wha Pharmaceutical Co., Ltd., priority 2008, dated 2011):
Marks after values point to notes of the source that are not given here.

Tested on: osteoclast differentiation
Assay: Osteoclast differentiation in co-culture of mouse bone marrow cells and ST2 cells, TRAP staining (Examples 8-9)
Format: cell-based
Conditions: for % number of osteoclast (vs. solvent control group): 0.1 μM each, day 7; for activity at 0.1 µM: Mus musculus, Osteoclast, 168 h, Individual treatment (compounds), day 7, read-out: % number of osteoclast (vs. solvent control group)
Method in brief: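 Bone marrow cells from 6-8-week male ddY mice were co-cultured with ST2 stromal cells under 10^−8 M vitamin D3 and 10^−8 M dexamethasone, with compounds at 0.1 μM final (0.1% DMSO control), refreshed on days 3 and 5. On day 7, TRAP-positive osteoclasts with ≥6 nuclei were counted and expressed as % of solvent control (n=4).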

[1] = Combination treatment (alendronic acid + compounds)
[2] = Combination treatment (risedronic acid + compounds)

Row | SMILES | % number of osteoclast (vs. solvent control group) [1] | % number of osteoclast (vs. solvent control group) [2] | activity at 0.1 µM [%]
1 | N=C(NO)c1ccc(OCCCCCOc2ccc(-c3nc(C4CCCCC4)sc3CCNC3CC3)cc2)cc1 [Compound 252, N-hydroxy-4-(5-{4-[2-cyclohexyl-5-(2-cyclopropylamino-ethyl)-thiazol-4-yl]-phenoxy}-pentyloxy)-benzamidine] | 33 ± 6.6^b % | 19 ± 4.0^ac % | 44 ± 2.7
2 | N=C(NO)c1ccc(OCCCCCOc2ccc(-c3nc(-c4ccccc4)sc3CCN3CCOCC3)cc2)cc1 [Compound 254, N-hydroxy-4-(5-{4-[5-(2-morpholin-4-yl-ethyl)-2-phenyl-thiazol-4-yl]-phenoxy}-pentyloxy)-benzamidine] | 29 ± 6.3^b % | 11 ± 2.5^ac % | 40 ± 8.3
3 | CCc1nc(-c2ccc(OCCCCCOc3ccc(C(=N)NO)cc3)cc2)c(CCN2CCOCC2)s1 [Compound 255, N-hydroxy-4-(5-{4-[2-ethyl-5-(2-morpholin-4-yl-ethyl)-thiazol-4-yl]-phenoxy}-pentyloxy)-benzamidine] | 18 ± 1.7^ab % | 12 ± 3.1^ac % | 50 ± 3.9
4 | CCc1nc(-c2ccc(OCCCCCOc3ccc(C(=N)NO)cc3)cc2)c(CCN2CCSCC2)s1 [Compound 256, N-hydroxy-4-(5-{4-[2-ethyl-5-(2-thiomorpholin-4-yl-ethyl)-thiazol-4-yl]-phenoxy}-pentyloxy)-benzamidine] | 26 ± 3.0^ab % | 12 ± 2.4^ac % | 49 ± 0.9
5 | CNc1nc(-c2ccc(OCCCCCOc3ccc(C(=N)NO)cc3)cc2)c(CCN2CCSCC2)s1 [Compound 262, N-hydroxy-4-(5-{4-[2-methylamino-5-(2-thiomorpholin-4-yl-ethyl)-thiazol-4-yl]-phenoxy}-pentyloxy)-benzamidine] | 24 ± 2.6^ab % | 7 ± 4.9^ac % | 47 ± 4.2
6 | CN(C)c1nc(-c2ccc(OCCCCCOc3ccc(C(=N)NO)cc3)cc2)c(CCN2CCOCC2)s1 [Compound 266, N-hydroxy-4-(5-{4-[2-dimethylamino-5-(2-morpholin-4-yl-ethyl)-thiazol-4-yl]-phenoxy}-pentyloxy)-benzamidine] | 36 ± 9.6^ab % | 26 ± 4.3^ac % | 64 ± 4
7 | CN(C)c1nc(-c2ccc(OCCCCCOc3ccc(C(=N)NO)cc3)cc2)c(CCN2CCSCC2)s1 [Compound 267, N-hydroxy-4-(5-{4-[2-dimethylamino-5-(2-thiomorpholin-4-yl-ethyl)-thiazol-4-yl]-phenoxy}-pentyloxy)-benzamidine] | 33 ± 5.3^ab % | 13 ± 2.4^ac % | 68 ± 8.6
8 | CC(C)C(=O)N(C)c1nc(-c2ccc(OCCCCCOc3ccc(C(=N)NO)cc3)cc2)c(CCN2CCOCC2)s1 [Compound 268, N-hydroxy-4-(5-{4-[2-(isobutyryl-methyl-amino)-5-(2-morpholin-4-yl-ethyl)-thiazol-4-yl]-phenoxy}-pentyloxy)-benzamidine] | 28 ± 1.7^b % | 17 ± 3.4^ac % | 52 ± 9.1
9 | N=C(NO)c1ccc(OCCCCCOc2ccc(-c3nc(N(CCN4CCOCC4)Cc4ccccc4)sc3CCN3CCOCC3)cc2)cc1 [Compound 269, N-hydroxy-4-(5-{4-[2-[benzyl-(2-morpholin-4-yl-ethyl)-amino]-5-(2-morpholin-4-yl-ethyl)-thiazol-4-yl]-phenoxy}-pentyloxy)-benzamidine] | 23 ± 5.2^ab % | 17 ± 4.4^ac % | 38 ± 3.7
10 | CCN(CC)c1nc(-c2ccc(OCCCCCOc3ccc(C(=N)NO)cc3)cc2)c(CCN2CCOCC2)s1 [Compound 270, N-hydroxy-4-(5-{4-[2-diethylamino-5-(2-morpholin-4-yl-ethyl)-thiazol-4-yl]-phenoxy}-pentyloxy)-benzamidine] | 28 ± 4.5^b % | 14 ± 2.1^ac % | 45 ± 6.9
11 | COCCN(CCOC)c1nc(-c2ccc(OCCCCCOc3ccc(C(=N)NO)cc3)cc2)c(CCN2CCOCC2)s1 [Compound 271, N-hydroxy-4-(5-{4-[2-[bis-(2-methoxy-ethyl)-amino]-5-(2-morpholin-4-yl-ethyl)-thiazol-4-yl]-phenoxy}-pentyloxy)-benzamidine] | 13 ± 3.7^ab % | 16 ± 2.9^ac % | 30 ± 5.3
12 | N=C(NO)c1ccc(OCCCCCOc2ccc(-c3nc(N4CCOCC4)sc3CCN3CCSCC3)cc2)cc1 [Compound 273, N-hydroxy-4-(5-{4-[2-morpholin-4-yl-5-(2-thiomorpholin-4-yl-ethyl)-thiazol-4-yl]-phenoxy}-pentyloxy)-benzamidine] | 25 ± 4.5^ab % | 11 ± 2.9^ac % | 53 ± 3.4
13 | CN1CCN(CCc2sc(N3CCOCC3)nc2-c2ccc(OCCCCCOc3ccc(C(=N)NO)cc3)cc2)CC1 [Compound 274, N-hydroxy-4-[5-(4-{5-[2-(4-methyl-piperazin-1-yl)-ethyl]-2-morpholin-4-yl-thiazol-4-yl}-phenoxy)-pentyloxy]-benzamidine] | 31 ± 2.9^ab % | 13 ± 1.3^ac % | 65 ± 8.9
14 | N=C(NO)c1ccc(OCCCCCOc2ccc(-c3nc(CN4CCCCC4)sc3CCN3CCOCC3)cc2)cc1 [Compound 276, N-hydroxy-4-(5-{4-[5-(2-morpholin-4-yl-ethyl)-2-piperidin-1-yl-methyl-thiazol-4-yl]-phenoxy}-pentyloxy)-benzamidine] | 21 ± 2.9^b % | 11 ± 3.1^c % | 41 ± 12.1
15 | CC(C)c1nc(-c2ccc(OCCCCCOc3ccc(C(=N)NO)cc3)cc2)c(CCN(C(=O)c2ccncc2)C2CC2)s1 [Compound 280, N-hydroxy-4-{5-[4-(5-{2-[cyclopropyl-(pyridin-4-carbonyl)-amino]-ethyl}-2-isopropyl-thiazol-4-yl)-phenoxy]-pentyloxy}-benzamidine] | 25 ± 6.4^b % | 8 ± 1.4^ac % | 40 ± 5
16 | N=C(NO)c1ccc(OCCCCCOc2ccc(-c3nc(C4CCCCC4)sc3CCN(C(=O)c3cccnc3)C3CC3)cc2)cc1 [Compound 281, N-hydroxy-4-{5-[4-(2-cyclohexyl-5-{2-[cyclopropyl-(pyridin-3-carbonyl)-amino]-ethyl}-thiazol-4-yl)-phenoxy]-pentyloxy}-benzamidine] | 22 ± 5.9^b % | 6 ± 2.5^ac % | 30 ± 7.6
17 | CNC(=O)c1sc(C)nc1-c1ccc(OCCCCCOc2ccc(C(=N)NO)cc2)cc1 [Compound 282, N-hydroxy-4-{5-[4-(5-methylcarbamoyl-2-methyl-thiazol-4-yl)-phenoxy]-pentyloxy}-benzamidine] | 49 ± 9.9^ab % | 45 ± 5.2^ac % | 73 ± 7.1
18 | Cc1nc(-c2ccc(OCCCCCOc3ccc(C(=N)NO)cc3)cc2)c(C(=O)NCCCn2ccnc2)s1 [Compound 284, N-hydroxy-4-{5-[4-(5-{3-imidazol-1-yl-propylcarbamoyl}-2-methyl-thiazol-4-yl)-phenoxy]-pentyloxy}-benzamidine] | 36 ± 5.0^ab % | 19 ± 5.8^ac % | 73 ± 7.7
19 | CNC(=O)c1sc(N)nc1-c1ccc(OCCCCCOc2ccc(C(=N)NO)cc2)cc1 [Compound 285, N-hydroxy-4-{5-[4-(2-amino-5-methylcarbamoyl-thiazol-4-yl)-phenoxy]-pentyloxy}-benzamidine] | 53 ± 0.9% | 40 ± 3.9^ac % | 70 ± 8
20 | Cc1nc(-c2ccc(OCCCCCOc3ccc(C(=N)NO)cc3)cc2)c(N2CCOCC2)s1 [Compound 286, N-hydroxy-4-{5-[4-(2-methyl-5-morpholin-4-yl-thiazol-4-yl)-phenoxy]-pentyloxy}-benzamidine] | 29 ± 4.1^b % | 26 ± 1.5^ac % | 43 ± 6.1
21 | CN1CCN(c2sc(N3CCOCC3)nc2-c2ccc(OCCCCCOc3ccc(C(=N)NO)cc3)cc2)CC1 [Compound 289, N-hydroxy-4-(5-{4-[5-(4-methyl-piperazin-1-yl)-2-morpholine-4-yl-thiazol-4-yl]-phenoxy}-pentyloxy)-benzamidine] | 21 ± 7.4^b % | 10 ± 3.1^ac % | 36 ± 9.1
22 | N=C(NO)c1ccc(OCCCCCOc2ccc(-c3nc(N4CCOCC4)sc3N3CCOCC3)cc2)cc1 [Compound 290, N-hydroxy-4-{5-[4-(2,5-di-morpholin-4-yl-thiazol-4-yl)-phenoxy]-pentyloxy}-benzamidine] | 23 ± 4.7^ab % | 12 ± 2.0^ac % | 52 ± 6.2
23 | N=C(NO)c1ccc(OCCCCCOc2ccc(-c3nc(N4CCOCC4)sc3N3CCSCC3)cc2)cc1 [Compound 291, N-hydroxy-4-{5-[4-(2-morpholin-4-yl-5-thiomorpholin-4-yl-thiazol-4-yl)-phenoxy]-pentyloxy}-benzamidine] | 20 ± 3.8^ab % | 12 ± 3.5^ac % | 44 ± 4.9
